Reference: PubChem BioAssay AID743395 (Broad Institute, 2014)
“And” between values parts separate entries of the source, which are not always exact repeats. Identical values can stand only once.

System: HepG2 viability, CellTiter-Glo ATP luminescence, 72 h
Assay: HepG2 cell cytotoxicity, dose response, cytotoxicity control, CellTiter-Glo luminescence, cherry-pick, set 2 (AID 743395)

| Compound | AC35 |
| --- | --- |
| O=C(Nc1nc(-c2ccccn2)cs1)c1ccc(F)c(S(=O)(=O)N2CCOCC2)c1 | 11.3 µM |
| O=c1c2ccccc2sc2c(CO)ccc(NCCN3CCCCC3)c12 | 4.82 µM |
| COc1ccc(-c2csc(NC(=S)NC(=O)/C=C/c3ccco3)n2)cc1OC | 14.3 µM |
| CCOc1cc(/C=N/NC(=O)N/N=C/c2ccc(O)c(OCC)c2)ccc1O | 20 µM |
| CN1C(=O)NC(=O)C2(CCCC2)C1=O | 9.42 µM |
| O=C(c1ccc(Br)cc1)c1cc([N+](=O)[O-])ccc1N1CCOCC1 | 3.19 µM |
| CCCC(=O)NC(NC(=S)Nc1ccc(N=Nc2ccccc2)cc1)C(Cl)(Cl)Cl (stereo not drawn) | 5.73 µM |
| CC(C)C[C@H]1CN([C@@H](Cc2ccc(O)cc2)CN2CCC[C@H]2CN2C(=O)C(=O)NC[C@@H]2Cc2ccccc2)C(=O)C(=O)N1CC1CCCCC1 | 15 µM |
| O=S(=O)(Nc1cc(Sc2cccc3cccnc23)c(O)c2ccccc12)c1ccccc1 | 7.49 µM |
| O=C(NCCOc1ccccc1F)c1cc([N+](=O)[O-])ccc1N1CCOCC1 | 13.6 µM |
| O=C(Nc1ccccc1)N1CCCCN2[C@@H](CO)[C@H](c3ccc(C#Cc4ccccc4)cc3)[C@@H]2C1 | 10.9 µM |
| CCC(=O)NC(c1ccc(C)cc1)c1ccc2cccnc2c1O (stereo not drawn) | 1.42 µM |
| CCN(CC)CCn1nc2c3c(cccc3c1=O)-c1ccccc1-2 | 2.82 µM |
| O=C1C=CC(O)(c2cc(=O)c3c(O)cc(O)cc3o2)C=C1 | 8.15 µM |
| COc1ccc2c3c(n(C)c2c1)[C@H](CO)N(C(=O)C1CC1)CC31CCN(Cc2cccc(F)c2)CC1 | 4.68 µM |
| COc1ccccc1NC(=S)NN=C(C)c1ccccn1 | 0.0927 µM |
| COc1ccc(C2=Nn3c(nnc3-c3ccccc3OC)SC2)cc1OC1CCOC1 (stereo not drawn) | 7.54 µM |
| COc1ccc(C(=O)c2ccc(N(C)C)cc2)c(OC)c1 | 14.9 µM |
| CN(C)CCCN(C(=O)c1ccco1)c1nc(-c2ccc(Cl)cc2)cs1 | 22.2 µM |
| COc1ccccc1C#Cc1ccc2c(c1)O[C@@H](CN(C)Cc1cccnc1)[C@H](C)CN([C@H](C)CO)S2(=O)=O | 22.4 µM |
| CCN(CC)CCC(=O)Nc1cccc2c1C(=O)c1ccccc1C2=O | 6.39 µM |
| O=C(N/N=C\c1c(O)ccc2ccccc12)c1cncc(Br)c1 | 1.18 µM |
| COc1cccc(N2CCN(C(=O)c3ccc(CS(=O)c4ccc(C)cc4)o3)CC2)c1 (stereo not drawn) | 0.833 µM |
| COc1cc(/C=C(\C#N)c2nc3ccccc3[nH]2)cc(OC)c1O | 17.2 µM |
| O=C(O)c1ccccc1-c1c2cc(I)c(=O)c(I)c-2oc2c(I)c(O)c(I)cc12 | 8.34 µM |
| COc1ccc(C(=O)OCC(=O)N2C(C)CCCC2C)cc1S(=O)(=O)N1CCOCC1 (stereo not drawn) | 18.7 µM |
| C[n+]1c2cc(N)ccc2cc2ccc(N)cc21 | 1.17 µM and 2.2 µM |
| C[C@H]1CN([C@@H](C)CO)S(=O)(=O)c2ccc(C#CC3CCCCC3)cc2O[C@H]1CN(C)Cc1cccnc1 | 22.2 µM |
